From ChEMBL document CHEMBL5376003, “Structure-Activity Relationship of FL118 Platform Position 7 Versus Position 9-Derived Compounds and Their Mechanism of Action and Antitumor Activity” (J Med Chem, 2023)
pIC50: −log10 of the molar value. The source made the active and inactive calls. The calls are words filed in the database; no cut-off is given here.

How the values were obtained:
HCT-116 [1] = assay: Induction of apoptosis in human HCT-116 cells assessed as downregulation of LIPE gene expression at 10 to 500 nM incubated for 6 to 48 hrs by RNA analysis; type: functional, cell-based; conditions: dose 10-500 nM, time 6-48 hrs
HCT-116 [2] = assay: Induction of apoptosis in human HCT-116 cells assessed as modulation of DDX54 mRNA expression at 10 to 500 nM incubated for 6 to 48 hrs by RNA analysis; type: functional, cell-based; conditions: dose 10-500 nM, time 6-48 hrs
HCT-116 [3] = assay: Induction of apoptosis in human HCT-116 cells assessed as downregulation of ADSL gene expression at 10 to 500 nM incubated for 6 to 48 hrs by RNA analysis; type: functional, cell-based; conditions: dose 10-500 nM, time 6-48 hrs
HCT-116 [4] = assay: Induction of apoptosis in human HCT-116 cells assessed as downregulation of NUP58 gene expression at 10 to 500 nM incubated for 6 to 48 hrs by RNA analysis; type: functional, cell-based; conditions: dose 10-500 nM, time 6-48 hrs
HCT-116 [5] = assay: Induction of apoptosis in human HCT-116 cells assessed as upregulation of ATF3 mRNA expression at 10 to 500 nM incubated for 6 to 48 hrs by RNA analysis; type: functional, cell-based; conditions: dose 10-500 nM, time 6-48 hrs
HCT-116 [6] = assay: Induction of apoptosis in human HCT-116 cells assessed as downregulation of ACACA gene expression at 10 to 500 nM incubated for 6 to 48 hrs by RNA analysis; type: functional, cell-based; conditions: dose 10-500 nM, time 6-48 hrs
HCT-116 [7] = assay: Induction of apoptosis in human HCT-116 cells assessed as upregulation of XPC mRNA expression at 10 to 500 nM incubated for 6 to 48 hrs by RNA analysis; type: functional, cell-based; conditions: dose 10-500 nM, time 6-48 hrs
HCT-116 [8] = assay: Induction of apoptosis in human HCT-116 cells assessed as downregulation of NUDT1 gene expression at 10 to 500 nM incubated for 6 to 48 hrs by RNA analysis; type: functional, cell-based; conditions: dose 10-500 nM, time 6-48 hrs
HCT-116 [9] = assay: Activation of innate immune response in human HCT-116 cells assessed as upregulation of IL-12RB2 gene expression at 10 to 500 nM incubated for 6 to 48 hrs by RNA analysis; type: functional, cell-based; conditions: dose 10-500 nM, time 6-48 hrs
HCT-116 [10] = assay: Induction of apoptosis in human HCT-116 cells assessed as upregulation of DDX5 mRNA expression at 500 nM incubated for 6 hrs by RNA analysis; type: functional, cell-based
HCT-116 [11] = assay: Induction of apoptosis in human HCT-116 cells assessed as downregulation of AMPD3 gene expression at 10 to 500 nM incubated for 6 to 48 hrs by RNA analysis; type: functional, cell-based; conditions: dose 10-500 nM, time 6-48 hrs
HCT-116 [12] = assay: Induction of apoptosis in human HCT-116 cells assessed as modulation of DDX19B mRNA expression at 10 to 500 nM incubated for 6 to 48 hrs by RNA analysis; type: functional, cell-based; conditions: dose 10-500 nM, time 6-48 hrs
HCT-116 [13] = assay: Induction of apoptosis in human HCT-116 cells assessed as downregulation of NUP133 gene expression at 10 to 500 nM incubated for 6 to 48 hrs by RNA analysis; type: functional, cell-based; conditions: dose 10-500 nM, time 6-48 hrs
HCT-116 [14] = assay: Induction of apoptosis in human HCT-116 cells assessed as downregulation of UMPS gene expression at 10 to 500 nM incubated for 6 to 48 hrs by RNA analysis; type: functional, cell-based; conditions: dose 10-500 nM, time 6-48 hrs
HCT-116 [15] = assay: Induction of apoptosis in human HCT-116 cells assessed as downregulation of NUP85 gene expression at 10 to 500 nM incubated for 6 to 48 hrs by RNA analysis; type: functional, cell-based; conditions: dose 10-500 nM, time 6-48 hrs
HCT-116 [16] = assay: Induction of apoptosis in human HCT-116 cells assessed as downregulation of GTF2H1 mRNA expression at 10 to 500 nM incubated for 6 to 48 hrs by RNA analysis; type: functional, cell-based; conditions: dose 10-500 nM, time 6-48 hrs
HCT-116 [17] = assay: Induction of apoptosis in human HCT-116 cells assessed as downregulation of NUP160 gene expression at 10 to 500 nM incubated for 6 to 48 hrs by RNA analysis; type: functional, cell-based; conditions: dose 10-500 nM, time 6-48 hrs
HCT-116 [18] = assay: Induction of apoptosis in human HCT-116 cells assessed as downregulation of PRKAR2B gene expression at 10 to 500 nM incubated for 6 to 48 hrs by RNA analysis; type: functional, cell-based; conditions: dose 10-500 nM, time 6-48 hrs
HCT-116 [19] = assay: Growth inhibition of human HCT-116 cells incubated for 48 hrs by MTT reagent based ELISA reader analysis; type: functional, cell-based; conditions: HCT-116, 48 h
HCT-116 [20] = assay: Induction of apoptosis in human HCT-116 cells assessed as upregulation of CDKN1A mRNA expression at 10 to 500 nM incubated for 6 to 48 hrs by RNA analysis; type: functional, cell-based; conditions: dose 10-500 nM, time 6-48 hrs
HCT-116 [21] = assay: Induction of apoptosis in human HCT-116 cells assessed as upregulation of ADCY6 mRNA expression at 10 to 500 nM incubated for 6 to 48 hrs by RNA analysis; type: functional, cell-based; conditions: dose 10-500 nM, time 6-48 hrs
HCT-116 [22] = assay: Induction of apoptosis in human HCT-116 cells assessed as downregulation of MCL-1 protein expression incubated for 48 hrs by Western blotting analysis; type: functional, cell-based
HCT-116 [23] = assay: Induction of apoptosis in human HCT-116 cells assessed as upregulation of GADD45A mRNA expression at 10 to 500 nM incubated for 6 to 48 hrs by RNA analysis; type: functional, cell-based; conditions: dose 10-500 nM, time 6-48 hrs
HCT-116 [24] = assay: Induction of apoptosis in human HCT-116 cells assessed as downregulation of SEH1L gene expression at 10 to 500 nM incubated for 6 to 48 hrs by RNA analysis; type: functional, cell-based; conditions: dose 10-500 nM, time 6-48 hrs
HCT-116 [25] = assay: Induction of apoptosis in human HCT-116 cells assessed as downregulation of TYMS gene expression at 10 to 500 nM incubated for 6 to 48 hrs by RNA analysis; type: functional, cell-based; conditions: dose 10-500 nM, time 6-48 hrs
PDX27454 = assay: Antitumor activity against human PDX27454 cells xenografted in SCID mouse model assessed as reduction in tumor volume at 2 mg/kg,po administrated once per week for 3 weeks; type: functional, organism-based
HCT-116 [26] = assay: Induction of apoptosis in human HCT-116 cells assessed as downregulation of DCTPP1 gene expression at 10 to 500 nM incubated for 6 to 48 hrs by RNA analysis; type: functional, cell-based; conditions: dose 10-500 nM, time 6-48 hrs
HCT-116 [27] = assay: Inhibition of cell migration in human HCT-116 cells assessed as intercellular distance at 5 nM incubated for 24 hrs by inverted phase-contrast microscopic analysis (reference value: 1 +/- 0.2 millimeter); type: functional
HCT-116 [28] = assay: Induction of apoptosis in human HCT-116 cells assessed as increase in intracellular ROS level at 10 to 1000 nM incubated for 4 to 8 hrs by DCFH-DA staining based fluorescence microscopy; type: functional, cell-based; conditions: dose 10-1000 nM, time 4-8 hrs
PDX14244 = assay: Antitumor activity against human PDX14244 cells xenografted in SCID mouse model assessed as reduction in tumor volume at 2 mg/kg,po administrated once per week for 3 weeks; type: functional, organism-based
HCT-116 [29] = assay: Induction of apoptosis in human HCT-116 cells assessed as downregulation of BIRC5 mRNA expression at 10 to 500 nM incubated for 6 to 48 hrs by RNA analysis; type: functional, cell-based; conditions: dose 10-500 nM, time 6-48 hrs
HCT-116 [30] = assay: Induction of apoptosis in human HCT-116 cells assessed as downregulation of NDC1 gene expression at 10 to 500 nM incubated for 6 to 48 hrs by RNA analysis; type: functional, cell-based; conditions: dose 10-500 nM, time 6-48 hrs
HCT-116 [31] = assay: Induction of apoptosis in human HCT-116 cells assessed as modulation of DDX49 mRNA expression at 10 to 500 nM incubated for 6 to 48 hrs by RNA analysis; type: functional, cell-based; conditions: dose 10-500 nM, time 6-48 hrs

| Structure (SMILES) | Activity (HCT-116 [1]) | Activity (HCT-116 [2]) | Activity (HCT-116 [3]) | Activity (HCT-116 [4]) | Activity (HCT-116 [5]) | Activity (HCT-116 [6]) | Activity (HCT-116 [7]) | Activity (HCT-116 [8]) | Activity (HCT-116 [9]) | Activity (HCT-116 [10]) | Activity (HCT-116 [11]) | Activity (HCT-116 [12]) | Activity (HCT-116 [13]) | Activity (HCT-116 [14]) | Activity (HCT-116 [15]) | Activity (HCT-116 [16]) | Activity (HCT-116 [17]) | Activity (HCT-116 [18]) | pIC50 (HCT-116 [19]) | Activity (HCT-116 [20]) | other results |
| --- | --- | --- | --- | --- | --- | --- | --- | --- | --- | --- | --- | --- | --- | --- | --- | --- | --- | --- | --- | --- | --- |
| CC[C@@]1(O)C(=O)OCc2c1cc1n(c2=O)Cc2c-1nc1cc3c(cc1c2-c1ccc(OC)cc1)OCO3 | Active | Active | Active | Active | Active | Active | Active | Active | Active | Active | Active | Active | Active | Active | Active | Active | Active | Active | 7.75 | Active | Activity (HCT-116 [21]): Active; Activity (HCT-116 [22]): Active; Activity (HCT-116 [23]): Active; Activity (HCT-116 [24]): Active; Activity (HCT-116 [25]): Active; Activity (PDX27454): Active; Activity (HCT-116 [26]): Active; Activity (HCT-116 [27]): 1.3 mm; Activity (HCT-116 [28]): Active; Activity (PDX14244): Active; Activity (HCT-116 [29]): Active; Activity (HCT-116 [30]): Active; Activity (HCT-116 [31]): Active |
| CC[C@@]1(O)C(=O)OCc2c1cc1n(c2=O)Cc2cc3cc4c(cc3nc2-1)OCO4 | Active | Active | Active | Active | Active | Active | Active | Active | Active | Active | Active | Active | Active | Active | Active | Active | Active | Active | 7.63 | Active | Activity (HCT-116 [21]): Active; Activity (HCT-116 [23]): Active; Activity (HCT-116 [24]): Active; Activity (HCT-116 [25]): Active; Activity (HCT-116 [26]): Active; Activity (HCT-116 [27]): 1.3 mm; Activity (HCT-116 [28]): Active; Activity (HCT-116 [29]): Active; Activity (HCT-116 [30]): Active; Activity (HCT-116 [31]): Active |
